pEC50: −log10 of the molar value. Read-outs that look alike come from different tables or passages of the source.
Assays:
[1] = system: AMPK pathway (pACC, phosphorylated Acetyl-CoA Carboxylase) in NHEK cells; assay: Evaluation on AMPK pathway in NHEK cells by pACC immunolabeling; type: cell-based, Human; conditions: for % control (labeling % of the pACC compared to the control brought back to 100%) / global increase of the pACC labelling: NHEK cells, Compound 4 at 10 μM; for % control (labeling % of the pACC compared to the control brought back to 100%): 48 hours incubation, n=3, AICAR at 500 μM (0.5% DMSO); for global increase of the pACC labelling: AICAR reference at 500 μM
Procedure: Evaluation of the effect of compound 4 on the AMPK pathway in NHEK cells (Normal Human Epidermal Keratinocytes) by analysis of the pACC (Acetyl-CoA Carboxylase) phosphorylated form expression. This effect is studied by fluorescent immunolabeling and image analysis.
Keratinocytes are seeded in 96-well microplates and grown for 24 hours in a culture medium. The medium is then replaced by the test medium and cells are grown for 24 supplementary hours. Finally, the medium is replaced by the test medium comprising or not (control) the tested compounds, the reference (AICAR) or the control solvent (0.1% or 0.5% DMSO) then the cells are incubated for 48 hours. All the test conditions were carried out with n=3.
After incubation, the immunolabeling is done. The results are expressed in labeling % of the pACC compared to the control brought back to 100%.

[2] = system: keratinocytes of the HaCaT line; assay: Production of reactive oxygen species (ROS) induced by UVA in HaCaT keratinocytes (DHR123 or DCFH-DA probe); type: cell-based; conditions: for pEC50: Homo sapiens, light or radiation study, 24 h incubation, UVA exposure, concentration allowing 50% photoprotection (500 μM vitamin C = 100%); for ROS production decrease: UVA-induced ROS
Procedure: The decrease of the production of reactive oxygen species in keratinocytes of the HaCaT line is evaluated by detection, using the Dihydrorhodamine 123 (DHR123) probe or using Dichloro-dihydro-fluorescein diacetate (DCFH-DA) probe, the ROS production is induced by exposition to UVA after 24 h of incubation in the presence of the compounds to be tested. The DHR123 and DCFH-DA probes are indicators of the presence of reactive oxygen species (ROS). HaCaT keratinocytes in monolayer culture are placed in the presence of a solution of a compound to be tested at various concentrations (0.4-200 μM) in the medium. After 24 h of incubation, the cells are exposed to UVA, then incubated with the DHR123 probe or DCFH-DA probe for 1 h. The fluorescence of the probe is then measured. A viability test is carried out in parallel in order to discard the cytotoxic compounds. In parallel, the keratinocytes are incubated with vitamin C acting as a positive control and a standard: an incubation with 500 μM of vitamin C corresponds to 100% photoprotection. The dose-effect curves of the fluorescence detected as a function of the concentration of compounds (to be tested) present in the medium make it possible to calculate the effective dose EC50 which corresponds to the concentration of compound (to be tested) that allows 50% photoprotection of the keratinocytes.

[3] = DCFH-DA probe, read-out: EC50- DCFH-DA
[4] = DHR123 probe, read-out: EC50 -DHR123

SMILES: NC(=O)c1ncn([C@@H]2O[C@H](CO)[C@@H](O)[C@H]2O)c1N [AICAR, reference compound]
- % control (labeling % of the pACC compared to the control brought back to 100%) [1]: 117%
- global increase of the pACC labelling [1]: 17%

SMILES: COc1cc(/C=C/c2ccc(OC(C)=O)c(OC)c2)ccc1O [Compound 5]
- pEC50 [2, 3]: 4.54
- ROS production decrease [2]: Yes

SMILES: COc1ccc(/C=C/c2ccc(O)c(OC)c2)cc1 [Compound 1]
- pEC50 [2, 3]: 4.70
- pEC50 [2, 4]: 4.44
- ROS production decrease [2]: Yes

SMILES: COc1cc(/C=C/c2ccc(OC)c(OC)c2)ccc1O [Compound 4]
- pEC50 [2, 4]: 4.00
- ROS production decrease [2]: Yes
- activation of the AMPK route in normal human keratinocytes ([1]; 10 μM): capable to active the AMPK route
- % control (labeling % of the pACC compared to the control brought back to 100%) [1]: 119%
- global increase of the pACC labelling [1]: 19%

— patent US11318079B2, “Polyhydroxylated (1-phenyl-2-phenyl) ethylene derivatives as an anti-ageing and photoprotective agent” (L'OREAL, priority 2015, dated 2022)
